From ChEMBL document CHEMBL1143311, “Structure-activity relationship and studies on the molecular mechanism of leishmanicidal N,C-coupled arylisoquinolinium salts” (J Med Chem, 2009)
Activity calls are given as the source filed them. No cut-off for these calls is given here.

Experiments:
Leishmania major [1] = test: Antileishmanial activity against Leishmania major MHOM/IL/81/FE/BNI promastigotes by alamar blue assay; assay type: functional, organism-based
[2] = Antiproliferative activity against mouse J774.1 cells after 48 hrs by alamar blue assay; assay type: cell-based; details: Mus musculus, J774.1, 48 h
[3] = Selectivity index, ratio of IC50 for mouse J774.1 cells to IC50 for Leishmania major MHOM/IL/81/FE/BNI promastigotes; assay type: toxicity; details: J774.1 cells, read-out: Ratio IC50
[4] = Cytotoxicity against BALB/c mouse DC after 48 hrs by alamar blue assay
[5] = Cytotoxicity against mouse NIH/3T3 after 48 hrs by alamar blue assay; assay type: cell-based; details: NIH3T3, 48 h
[6] = Cytotoxicity against BALB/c mouse peritoneal macrophages after 48 hrs by alamar blue assay; assay type: cell-based; details: Macrophage
Leishmania major [7] = test: Antileishmanial activity against Leishmania major MHOM/IL/81/FE/BNI promastigotes infected in BALB/c mouse peritoneal macrophages assessed as decrease in infection rate after 48 hrs by fluorescence microscopy; assay type: functional, organism-based
[8] = Ratio of IC50 for BALB/c mouse peritoneal macrophages to EC50 for Leishmania major MHOM/IL/81/FE/BNI promastigotes
Albumin = Albumin (Bos taurus, UniProt P02769); test: Binding affinity to bovine serum albumin by ultrafiltration method; assay type: ADME; details: cattle, bovine serum albumin; read-out: PPB (converted)
Chain of Albumin (P02769 whole entry): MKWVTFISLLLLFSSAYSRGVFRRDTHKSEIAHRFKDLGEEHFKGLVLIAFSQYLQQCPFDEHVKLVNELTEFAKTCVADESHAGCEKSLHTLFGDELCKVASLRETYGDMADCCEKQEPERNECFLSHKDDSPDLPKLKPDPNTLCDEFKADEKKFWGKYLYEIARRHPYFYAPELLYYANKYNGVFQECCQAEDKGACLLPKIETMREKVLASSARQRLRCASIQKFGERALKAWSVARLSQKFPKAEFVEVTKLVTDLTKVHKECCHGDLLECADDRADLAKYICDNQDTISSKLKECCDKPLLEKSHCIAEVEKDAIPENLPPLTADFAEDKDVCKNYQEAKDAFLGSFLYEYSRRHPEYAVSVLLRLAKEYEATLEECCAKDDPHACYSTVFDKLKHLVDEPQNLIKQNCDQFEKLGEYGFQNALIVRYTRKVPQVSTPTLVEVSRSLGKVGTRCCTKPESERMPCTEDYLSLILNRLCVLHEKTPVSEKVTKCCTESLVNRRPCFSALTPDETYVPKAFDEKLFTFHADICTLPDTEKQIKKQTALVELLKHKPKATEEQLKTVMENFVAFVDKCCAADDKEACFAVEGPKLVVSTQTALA

Macrophage [9] = test: Reduction of IL6 production in LPS-stimulated BALB/c mouse peritoneal macrophages infected with Leishmania major MHOM/IL/81/FE/BNI promastigotes at 3 uM after 24 hrs by sandwich ELISA; assay type: functional, cell-based
Macrophage [10] = test: Reduction of IL6 production in IFN-gamma-stimulated BALB/c mouse peritoneal macrophages infected with Leishmania major MHOM/IL/81/FE/BNI promastigotes at 3 uM after 24 hrs by sandwich ELISA; assay type: functional, cell-based
Macrophage [11] = test: Reduction of TNFalpha production in IFN-gamma-stimulated BALB/c mouse peritoneal macrophages infected with Leishmania major MHOM/IL/81/FE/BNI promastigotes at 3 uM after 24 hrs by sandwich ELISA; assay type: functional, cell-based
Macrophage [12] = test: Decrease in IL10 secretion in IFN-gamma-stimulated BALB/c mouse peritoneal macrophages infected with Leishmania major MHOM/IL/81/FE/BNI promastigotes at 3 uM after 24 hrs by sandwich ELISA; assay type: functional, cell-based
Macrophage [13] = test: Decrease in IL10 secretion in LPS-stimulated BALB/c mouse peritoneal macrophages infected with Leishmania major MHOM/IL/81/FE/BNI promastigotes at 3 uM after 24 hrs by sandwich ELISA; assay type: functional, cell-based
Macrophage [14] = test: Increase in nitric oxide production in LPS-stimulated BALB/c mouse peritoneal macrophages infected with Leishmania major MHOM/IL/81/FE/BNI promastigotes at 3 uM after 48 hrs by […]; assay type: functional, cell-based
Cytochrome P450 2D6 [15] = target: T1, Cytochrome P450 2D6 (Homo sapiens, UniProt P10635); test: Inhibition of human CYP2D6 at 1 to 100 uM by LC/ESI-MS analysis; assay type: ADME
T1 sequence (P10635 whole entry): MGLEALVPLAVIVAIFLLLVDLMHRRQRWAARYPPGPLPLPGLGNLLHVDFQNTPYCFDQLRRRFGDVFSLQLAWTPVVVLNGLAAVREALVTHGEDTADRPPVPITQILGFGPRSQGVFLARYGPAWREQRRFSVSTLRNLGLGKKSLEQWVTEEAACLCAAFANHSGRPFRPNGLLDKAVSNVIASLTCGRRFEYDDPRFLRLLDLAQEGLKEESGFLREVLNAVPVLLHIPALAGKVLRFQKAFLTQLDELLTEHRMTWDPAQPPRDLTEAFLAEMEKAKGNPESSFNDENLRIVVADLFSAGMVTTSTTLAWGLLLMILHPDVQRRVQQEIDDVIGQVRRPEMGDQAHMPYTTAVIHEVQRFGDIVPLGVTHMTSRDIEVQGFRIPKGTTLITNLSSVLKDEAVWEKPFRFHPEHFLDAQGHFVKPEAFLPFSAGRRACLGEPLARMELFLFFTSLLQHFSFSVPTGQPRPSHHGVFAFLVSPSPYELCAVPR

Cytochrome P450 2C9 = Cytochrome P450 2C9 (Homo sapiens, UniProt P11712); test: Inhibition of human CYP2C9 at 100 uM by LC/ESI-MS analysis; assay type: ADME
Chain of Cytochrome P450 2C9 (P11712 whole entry): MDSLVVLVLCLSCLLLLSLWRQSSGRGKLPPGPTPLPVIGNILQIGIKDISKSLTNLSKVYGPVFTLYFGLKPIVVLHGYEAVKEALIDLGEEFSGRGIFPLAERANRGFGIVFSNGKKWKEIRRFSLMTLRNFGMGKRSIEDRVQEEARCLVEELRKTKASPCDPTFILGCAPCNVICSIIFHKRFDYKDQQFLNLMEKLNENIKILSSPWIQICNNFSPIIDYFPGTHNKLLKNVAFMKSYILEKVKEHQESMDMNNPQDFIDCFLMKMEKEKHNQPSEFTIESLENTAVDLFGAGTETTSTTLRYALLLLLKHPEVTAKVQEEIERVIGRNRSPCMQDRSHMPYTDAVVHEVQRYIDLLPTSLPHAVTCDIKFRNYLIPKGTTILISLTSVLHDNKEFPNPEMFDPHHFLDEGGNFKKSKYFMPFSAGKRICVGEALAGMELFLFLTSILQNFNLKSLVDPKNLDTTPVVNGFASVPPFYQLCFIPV

Cytochrome P450 2C19 = Cytochrome P450 2C19 (Homo sapiens, UniProt P33261); test: Inhibition of human CYP2C19 at 100 uM by LC/ESI-MS analysis; assay type: ADME
Chain of Cytochrome P450 2C19 (P33261 whole entry): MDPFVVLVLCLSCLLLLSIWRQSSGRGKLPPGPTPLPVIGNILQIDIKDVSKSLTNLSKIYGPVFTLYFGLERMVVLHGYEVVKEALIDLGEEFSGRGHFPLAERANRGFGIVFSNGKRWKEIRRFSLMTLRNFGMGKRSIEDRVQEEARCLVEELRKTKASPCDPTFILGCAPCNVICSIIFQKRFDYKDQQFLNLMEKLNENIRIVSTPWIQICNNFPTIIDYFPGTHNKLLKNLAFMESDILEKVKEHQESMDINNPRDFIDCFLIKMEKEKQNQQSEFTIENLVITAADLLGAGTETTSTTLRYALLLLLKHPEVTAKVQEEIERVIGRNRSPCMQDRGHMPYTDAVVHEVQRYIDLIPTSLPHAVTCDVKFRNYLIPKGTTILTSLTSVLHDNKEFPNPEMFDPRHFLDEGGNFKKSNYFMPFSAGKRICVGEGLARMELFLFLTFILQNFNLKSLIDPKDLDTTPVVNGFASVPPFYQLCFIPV

Cytochrome P450 3A4 = Cytochrome P450 3A4 (Homo sapiens, UniProt P08684); test: Inhibition of human CYP3A4 at 100 uM by LC/ESI-MS analysis; assay type: ADME
Chain of Cytochrome P450 3A4 (P08684 whole entry): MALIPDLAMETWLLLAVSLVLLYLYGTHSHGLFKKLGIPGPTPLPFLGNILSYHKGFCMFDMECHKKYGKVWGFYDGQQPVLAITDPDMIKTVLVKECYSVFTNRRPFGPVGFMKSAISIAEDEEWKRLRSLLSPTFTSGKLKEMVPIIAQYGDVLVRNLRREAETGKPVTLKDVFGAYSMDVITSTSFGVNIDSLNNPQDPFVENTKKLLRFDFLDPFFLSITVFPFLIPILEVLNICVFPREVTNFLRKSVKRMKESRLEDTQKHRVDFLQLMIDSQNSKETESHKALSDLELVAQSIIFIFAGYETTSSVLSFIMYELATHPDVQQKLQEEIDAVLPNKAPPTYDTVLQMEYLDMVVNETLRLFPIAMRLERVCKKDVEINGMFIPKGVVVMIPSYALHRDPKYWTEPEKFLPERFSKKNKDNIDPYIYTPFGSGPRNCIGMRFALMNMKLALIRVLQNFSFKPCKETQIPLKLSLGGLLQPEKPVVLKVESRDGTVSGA

Leishmania major [16] = test: Antileishmanial activity against Leishmania major MHOM/IL/81/FE/BNI promastigotes infected in BALB/c mouse peritoneal macrophages assessed as decrease in infection rate after 48 hrs by fluorescence microscopy in presence of interferon-gamma; assay type: functional, organism-based
Macrophage [17] = test: Increase in TGFbeta secretion in IFN-gamma-stimulated BALB/c mouse peritoneal macrophages infected with Leishmania major MHOM/IL/81/FE/BNI promastigotes at 3 uM after 24 hrs by sandwich ELISA; assay type: functional, cell-based
Macrophage [18] = test: Increase in TGFbeta secretion in BALB/c mouse peritoneal macrophages infected with Leishmania major MHOM/IL/81/FE/BNI promastigotes at 3 uM after 24 hrs by sandwich ELISA; assay type: functional, cell-based
Macrophage [19] = test: Increase in nitric oxide production in IFN-gamma-stimulated BALB/c mouse peritoneal macrophages infected with Leishmania major MHOM/IL/81/FE/BNI promastigotes at 3 uM after 48 hrs by […] relative to noninfected cells; assay type: functional
Macrophage [20] = test: Increase in nitric oxide production in BALB/c mouse peritoneal macrophages infected with Leishmania major MHOM/IL/81/FE/BNI promastigotes at 3 uM after 48 hrs by […] relative to noninfected cells; assay type: functional
Cytochrome P450 2D6 [21] = target: T1, Cytochrome P450 2D6; test: Inhibition of human CYP2D6 expressed in baculovirus-infected insect cell system; assay type: ADME
Cytochrome P450 2D6 [22] = target: T1, Cytochrome P450 2D6; test: Inhibition of human CYP2D6 by Lineweaver-Burke plot; assay type: ADME
Macrophage [23] = test: Reduction of TNFalpha production in LPS-stimulated BALB/c mouse peritoneal macrophages infected with Leishmania major MHOM/IL/81/FE/BNI promastigotes at 3 uM after 24 hrs by sandwich ELISA; assay type: functional, cell-based

With `COc1cc(OC)c2c(C)[n+](-c3ccc(C(C)(C)C)cc3)c(C)cc2c1` as the compound, how does the IC50 (Leishmania major [1]; Leishmania major) read?
Its IC50 is 2.67 µM.

What about the IC50 [2] of the same compound?
The IC50 was 4.28 µM.

What about the selectivity ratio [3] of the same compound?
The selectivity ratio was 1.6.

For `COc1cc(OC)c2c(C)[n+](-c3c(C)cccc3C)c(C)cc2c1.F[B-](F)(F)F`, which IC50 (Leishmania major [1]; Leishmania major) is on record?
Its IC50 is 3.49 µM.

And the IC50 [2]?
Its IC50 is 27.3 µM.

And the selectivity ratio [3]?
Its selectivity ratio is 7.82.

And the IC50 [4]?
Its IC50 is 8.76 µM.

What about the IC50 [5] of the same compound?
Its IC50 is 37.6 µM.

And the IC50 [6]?
Its IC50 is 9.67 µM.

And the EC50 (Leishmania major [7])?
The EC50 was 0.241 µM.

What about the “Ratio IC50/EC50” value [8] of the same compound?
The value was 40.

What about the fraction unbound (Albumin) of the same compound?
The fraction unbound was 0.538.

And the Activity (Macrophage [9])?
Its Activity is “Active”.

And the Activity (Macrophage [10])?
The Activity was “Active”.

What about the Activity (Macrophage [11]) of the same compound?
The Activity was “Active”.

And the Activity (Macrophage [12])?
Its Activity is “Active”.

And the Activity (Macrophage [13])?
Its Activity is “Active”.

What about the Activity (Macrophage [14]) of the same compound?
The Activity was “inactive”.

What about the Activity (Cytochrome P450 2D6 [15]) of the same compound?
Its Activity is “Not Active”.

And the Activity (Cytochrome P450 2C9)?
The Activity was “Active”.

What about the Activity (Cytochrome P450 2C19) of the same compound?
Its Activity is “Active”.

What about the Activity (Cytochrome P450 3A4) of the same compound?
The Activity was “Active”.

And the Activity (Leishmania major [16])?
Its Activity is “Active”.

Which IC50 (Leishmania major [1]; Leishmania major) does the source give for `COc1cc2c(c(OC)c1)C(C)N(c1cccc3ccccc13)C(C)C2` (configuration not stated) here?
The IC50 was 65.6 µM.

What about the IC50 [2] of the same compound?
Its IC50 is over 100 µM.

Which IC50 (Leishmania major [1]) does the source give for `COc1cc(OC)c2c(C)[n+](-c3cccc4cc5ccccc5cc34)c(C)cc2c1` here?
The IC50 was 1.85 µM.

And the IC50 [2]?
The IC50 was 1.69 µM.

And the selectivity ratio [3]?
The selectivity ratio was under 1.

With `COc1cc(OC)c2c(C)[n+](-c3ccc4cc5ccccc5cc4c3)c(C)cc2c1` as the compound, how does the IC50 (Leishmania major [1]; Leishmania major) read?
Its IC50 is 0.67 µM.

And the IC50 [2]?
Its IC50 is 0.23 µM.

And the selectivity ratio [3]?
The selectivity ratio was under 1.

What does the source list for `CCCCc1ccc(-[n+]2c(C)cc3cc(OC)cc(OC)c3c2C)cc1`?
IC50 (Leishmania major [1]; Leishmania major): 2.69 µM; IC50 [2]: 4.47 µM; selectivity ratio [3]: < 1

Which results are given for `COc1cc(OC)c2c(C)[n+](-c3ccc(C(C)C)cc3)c(C)cc2c1.O=C([O-])C(F)(F)F`?
IC50 (Leishmania major [1]; Leishmania major): 2 µM; IC50 [2]: 13.1 µM; selectivity ratio [3]: 6.55; IC50 [4]: 7.6 µM; IC50 [5]: 11.1 µM; IC50 [6]: 8.81 µM; EC50 (Leishmania major [7]): 0.158 µM; Ratio IC50/EC50 [8]: 56; fraction unbound (Albumin): 0.297; Activity (Macrophage [9]): Active; Activity (Macrophage [10]): Active; Activity (Macrophage [11]): Active; Activity (Macrophage [17]): Active; Activity (Macrophage [18]): Active; Activity (Macrophage [12]): Active; Activity (Macrophage [13]): Active; Activity (Macrophage [14]): inactive; fold change (FC) (Macrophage [19]): 3; fold change (FC) (Macrophage [20]): 2.7; Activity (Cytochrome P450 2D6 [15]): Active; Activity (Cytochrome P450 2C9): Not Active; Activity (Cytochrome P450 2C19): Not Active; Activity (Cytochrome P450 3A4): Not Active; IC50 (Cytochrome P450 2D6 [21]): 0.109 µM; Ki (Cytochrome P450 2D6 [22]): 0.0547 µM; Activity (Leishmania major [16]): Active

With `COc1cc(OC)c2c(C)[n+](-c3ccc4ccccc4c3)c(C)cc2c1` as the compound, how does the IC50 (Leishmania major [1]; Leishmania major) read?
Its IC50 is 3.37 µM.

What about the IC50 [2] of the same compound?
The IC50 was 8.13 µM.

And the selectivity ratio [3]?
The selectivity ratio was 2.41.

For `COc1cc(OC)c2c(C)[n+](-c3c(C)cc(C)cc3C)c(C)cc2c1`, which IC50 (Leishmania major [1]; Leishmania major) is on record?
The IC50 was 1.49 µM.

What about the IC50 [2] of the same compound?
Its IC50 is 4.2 µM.

And the selectivity ratio [3]?
Its selectivity ratio is 2.82.

Which results are given for `CCCc1ccc(-[n+]2c(C)cc3cc(OC)cc(OC)c3c2C)cc1`?
IC50 (Leishmania major [1]; Leishmania major): 1.63 µM; IC50 [2]: 5.36 µM; selectivity ratio [3]: 1.14

For `COc1cc2c(c(OC)c1)C(C)N(c1ccc(C(C)C)cc1)C(C)C2` (configuration not stated), which IC50 (Leishmania major [1]; Leishmania major) is on record?
Its IC50 is 49.9 µM.

What about the IC50 [2] of the same compound?
The IC50 was 74.7 µM.

Which IC50 (Leishmania major [1]; Leishmania major) does the source give for `COc1ccc(-[n+]2c(C)cc3cc(OC)cc(OC)c3c2C)cc1` here?
The IC50 was over 100 µM.

And the IC50 [2]?
Its IC50 is over 100 µM.

With `C[C@@H]1[C@H](O)[C@@H](C)/C=C/C=C/C=C/C=C/C=C/C=C/C=C/[C@H](O[C@@H]2O[C@H](C)[C@@H](O)[C@H](N)[C@@H]2O)C[C@@H]2O[C@](O)(C[C@@H](O)C[C@@H](O)[C@H](O)CC[C@@H](O)C[C@@H](O)CC(=O)O[C@H]1C)C[C@H](O)[C@H]2C(=O)O` [AMPHOTERICIN B] as the compound, how does the IC50 (Leishmania major [1]; Leishmania major) read?
Its IC50 is 5.07 µM.

And the IC50 [2]?
The IC50 was over 70 µM.

What about the selectivity ratio [3] of the same compound?
The selectivity ratio was over 14.

What about the IC50 [6] of the same compound?
The IC50 was over 70 µM.

And the EC50 (Leishmania major [7])?
Its EC50 is 0.075 µM.

What about the “Ratio IC50/EC50” value [8] of the same compound?
The value was over 1000.

What does the source list for `COc1cc(OC)c2c(C)[n+](-c3ccc(C#N)cc3)c(C)cc2c1`?
IC50 (Leishmania major [1]; Leishmania major): > 100 µM; IC50 [2]: > 100 µM

Which results are given for `CCc1ccc(-[n+]2c(C)cc3cc(OC)cc(OC)c3c2C)cc1`?
IC50 (Leishmania major [1]; Leishmania major): 5.53 µM; IC50 [2]: 4.5 µM; selectivity ratio [3]: < 1; fraction unbound (Albumin): 0.475

Which results are given for `COc1cc(OC)c2c(C)[n+](-c3cccc4ccccc34)c(C)cc2c1`?
Activity (Macrophage [9]): Active; Activity (Macrophage [10]): Active; Activity (Macrophage [23]): Active; Activity (Macrophage [11]): Active; Activity (Macrophage [17]): Active; Activity (Macrophage [18]): Active; Activity (Macrophage [12]): inactive; Activity (Macrophage [13]): inactive; Activity (Macrophage [14]): inactive

For `COc1cc(OC)c2c(C)[n+](-c3cccc(C)c3C)c(C)cc2c1`, which IC50 (Leishmania major [1]; Leishmania major) is on record?
The IC50 was 11.6 µM.

What about the IC50 [2] of the same compound?
The IC50 was 10.5 µM.

What about the selectivity ratio [3] of the same compound?
The selectivity ratio was under 1.
